Results reported in PMC9583845, “Characterization of the chicken melanocortin 5 receptor and its potential role in regulating hepatic glucolipid metabolism” (Frontiers in Physiology, 2022).

Legend:
[1] = tested on: ACACA mRNA, primary chicken hepatocytes; test: ACACA mRNA in primary chicken hepatocytes, RT-qPCR; type: cell-based; settings: 0.1–100 nM, 6 h, N = 4, Figure 8G, listed as not decreased
Procedure: (§1) To evaluate the effect of ACTH1-39 on chicken liver, the chicken hepatocytes were prepared and maintained as a monolayer culture. Briefly, one-month-old male chicken hepatocytes were isolated by perfusion of a liver with Ca^2+-free KRB buffer to remove blood cells, and being digested with 0.25% collagenase-I for 10 min. Hepatocytes were obtained following filtering and washing using M199 medium. Then the hepatocytes were plated in a Corning CellBIND 48-well microplate (Corning, NY, cat. no.3338) with M199 medium containing 100 U/ml penicillin and […] streptomycin (Gibco), 5 μg/ml bovine insulin (Sigma), and 5% FBS at 37°C in a 5% CO2 atmosphere. To adhere to the wall, the cells were incubated on the 48-well plate for 4 h.
(§2) For quantitative real-time PCR, primary cultured chicken hepatocytes were treated with various concentrations of ACTH1-39 (or other composition) at 37°C for 6 h. The relative amount of mRNA was calculated using the comparative Ct method. Chicken β-actin gene was used as the reference gene. Amplification of specific transcripts was confirmed by analyzing the melting curve profile performed at the end of each run and by determining the size of the PCR products using agarose electrophoresis and ethidium bromide staining.

chicken MC5R = chicken MC5R (Gallus gallus, UniProt O73671); test: pGL3-CRE-luciferase reporter assay, CHO cells expressing chicken MC5R; type: cell-based; settings: for ability to activate / sensitivity of cMC5R (in words, ranking): CHO cells expressing cMC5R
Description: All chemicals were purchased from Sigma-Aldrich (St. Louis, MO, United States) and the restriction enzymes were obtained from TaKaRa (Dalian, China). […] All primers used in this study were synthesized by Beijing Genome Institute (BGI, China) and listed in Supplementary Table 1.
(§3) The expression plasmids encoding MC5R, MRAP1 and MRAP2 were established by cloning their entire open reading frame (ORF) into the pcDNA3.1 (+) expression vector (Invitrogen).
(§4) The cells were then transfected with a mixture containing 700 ng pGL3-CRE-Luciferase reporter construct, 200 ng of receptor expression plasmid (or empty pcDNA3.1 vector as a negative control), 20 ng of pRL-TK construct (containing a Renilla luciferase gene, used as an internal control), and 2 μl jetPRIME transfection reagent (Polyplus Transfection, Illkirch, France) in 200 μL buffer. […] After removal of the medium from the 96-well plate, the cells were treated with 100 μl ligand-containing medium (or ligand-free medium) for 6 h. Finally, CHO cells were lysed with 1 × passive lysis buffer for luciferase assay (Promega) and the luciferase activity of the cell lysate was measured by a Multimode Microplate Reader (TriStar LB941, EG&G Berthold, Germany) according to the manufacturer’s instruction.
(§5) All statistical analysis was performed using GraphPad Prism 9 (Graph Pad Software Inc., San Diego, CA). The dose-response curves were constructed using nonlinear regression models. Student’s test was used to compare two groups, for more than two groups one-way ANOVA was performed followed by Dunnett’s test. To validate our results, all in-vitro experiments were repeated three times, and representative data are reported.

[2] = tested on: FASN mRNA, primary chicken hepatocytes; test: FASN mRNA in primary chicken hepatocytes, RT-qPCR; type: cell-based; settings: 0.1–100 nM, 6 h, N = 4, Figure 8H, listed as not decreased
Procedure: as §1, §2

[3] = tested on: primary chicken hepatocytes; test: Lipid quantification by Oil Red O staining, primary cultured chicken hepatocytes; type: cell-based; settings: 24 h; OD at 540 nm of isopropanol extract; N = 6; Figures 7C–D
Procedure: as §1
For lipid quantification by Oil Red O staining, after treatment with ACTH1-39 for 24 h, primary cultured chicken hepatocytes were washed with PBS and then fixed with 4% paraformaldehyde for 30 min. After PBS washing, the Oil Red O working solution was added to stain for 30 min. The stained lipids were then visualized by light microscopy after washing in PBS. To quantify the lipid content, the Oil Red O stained in the cells was extracted with isopropanol by measuring the OD value at 540 nm.

chicken MC5R + MRAP2 = chicken MC5R + MRAP2 (Gallus gallus, UniProt O73671); test: pGL3-CRE-luciferase reporter assay, CHO cells co-expressing MC5R and cMRAP2; type: cell-based; settings: for effect of MRAP2 co-expression on sensitivity of MC5R: vs MC5R expressed alone
Procedure: as §3, §4, §5

[4] = tested on: SCD mRNA, primary chicken hepatocytes; test: SCD mRNA in primary chicken hepatocytes, RT-qPCR; type: cell-based; settings: 0.1–100 nM, 6 h, N = 4, Figure 8I, listed as not decreased
Procedure: as §1, §2

[5] = tested on: primary chicken hepatocytes; test: Glucose production from primary cultured chicken hepatocytes; type: cell-based; settings: for glucose production (in words): primary chicken hepatocytes, 100 nM for 30 or 60 min, or 0.1–100 nM for 60 min, gluconeogenic substrates 20 mM lactate, 2 mM pyruvate, four independent experiments, Figures 7A,B
Procedure: as §1
Glucose production from primary cultured chicken hepatocytes was measured as previously described ([Collins et al., 2006]). Briefly, cells were washed three times with warm phosphate-buffered saline (PBS) to remove glucose, followed by treatment with 100 nM (or different concentration gradients) chicken ATCH1-39 for 30 min or 60 min in glucose-free medium containing gluconeogenic substrates (20 mM sodium lactate and 2 mM sodium pyruvate). Glucose concentration was determined with a glucose assay kit (Applygen, Beijing, China, catalog no. E1011). Briefly, the 5 µl medium was added into 195 µl reagent and incubated for 20 min at 37°C. Absorbance in 550 nm was measured in a standard glucose solution.

chicken MC4R = tested on: chicken MC4R; set-up: method as in Zhang et al., 2017; Thomas et al., 2018; settings: ref Zhang et al., 2017; Thomas et al., 2018; cited from earlier work
[6] = tested on: CREB phosphorylation (cMC5R); test: CREB phosphorylation, western blot, CHO cells expressing cMC5R; type: cell-based, chicken; settings: 10 nM, 10 min; p-CREB normalized by total CREB; three independent experiments; Figure 2D
Procedure: To investigate whether the activation of cMC5R can enhance CREB phosphorylation, 100 ng of cMC5R expression plasmid, or an empty pcDNA3.1 (+) vector, was transfected into CHO cells cultured in a 24-well plate (Nunc) using jetPRIME transfection reagent (Polyplus Transfection). After 24 h transfection, ACTH (10 nM) or α-MSH (10 nM) was added to treat the cells for 10 min. Then the whole-cell lysates were used to examine the level of phosphorylated CREB using western blot. The level of total CREB protein was also examined and used as internal controls in each experiment. The phosphorylated CREB (p-CREB) and total CREB levels were quantified by densitometric analysis with ImageJ software. Relative optical densities of p-CREB normalized by CREB levels compared to the densities in the absence of ACTH (or α-MSH) are shown as relative p-CREB/CREB expression (fold changes).

chicken MC5R, sequence (O73671 1-325): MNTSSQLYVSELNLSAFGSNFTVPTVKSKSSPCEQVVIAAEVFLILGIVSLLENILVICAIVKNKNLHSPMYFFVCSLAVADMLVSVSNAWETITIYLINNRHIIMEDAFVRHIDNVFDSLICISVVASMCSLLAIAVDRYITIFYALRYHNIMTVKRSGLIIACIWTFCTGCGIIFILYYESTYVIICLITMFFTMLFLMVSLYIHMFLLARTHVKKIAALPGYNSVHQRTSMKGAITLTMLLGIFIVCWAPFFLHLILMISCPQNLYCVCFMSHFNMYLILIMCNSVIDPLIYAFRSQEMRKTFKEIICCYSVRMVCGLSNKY
chicken MC5R + MRAP2, sequence (O73671 1-325): as above
chicken MC5R + MRAP2, sequence (A0A140B2F4 1-206 partner): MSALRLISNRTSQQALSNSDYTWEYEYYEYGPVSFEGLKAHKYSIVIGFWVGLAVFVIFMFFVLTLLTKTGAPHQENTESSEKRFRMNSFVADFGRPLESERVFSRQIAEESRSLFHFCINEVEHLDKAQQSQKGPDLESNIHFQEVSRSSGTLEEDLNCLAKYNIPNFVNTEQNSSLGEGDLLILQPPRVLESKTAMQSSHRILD

ability to activate / sensitivity of cMC5R (in words, ranking) (chicken MC5R): ACTH1-39 ≈ α-MSH > β-MSH > γ-MSH | ability to activate / sensitivity of cMC5R (in words, ranking) (chicken MC5R; listed as ACTH): highest potency to activate cMC5R | EC50 (chicken MC5R; Table 1 / Figure 3, CHO cells, MC5R alone, 6 h, mean ± SEM of at least three independent experiments (figure: four replicates), read-out: EC50, MC5R expressed alone): 5.91 ± 1.18 nM | EC50 (chicken MC5R + MRAP2; Table 1 / Figure 3, co-expressed with cMRAP2, 6 h, pGL3-CRE-luciferase, mean ± SEM of at least three independent experiments (figure: four replicates), ^a: significantly different from the parameter of MC5R, p < 0.01): 3.19 ± 1.09 nM
Substance: H-SYSMEHFRWGKPVGRKRRPIKVYPNGVDEESAESYPMEF-OH [ACTH1-39]
ACACA mRNA expression [1]: instead of ACACA, FASN and SCD | FASN mRNA expression [2]: instead of ACACA, FASN and SCD | lipid contents (Oil Red O staining) [3]: lipid contents were lower in the ACTH-treat group in a dose-dependent manner | effect of MRAP2 co-expression on sensitivity of MC5R (chicken MC5R + MRAP2; α-MSH p < 0.01): did not affect the sensitivity of cMC5R to ACTH1-39 | effect of MRAP2 co-expression on sensitivity of MC5R (chicken MC5R + MRAP2; α-MSH p < 0.01, listed as ACTH): no effect on the sensitivity of chicken MC5R for ACTH | SCD mRNA expression [4]: instead of ACACA, FASN and SCD | time from which glucose production significantly increased ([5]; 100 nM ACTH, 30 and 60 min, Figure 7A): ≥ 0.5 h | dose from which glucose production significantly increased ([5]; 0.1–100 nM ACTH, 60 min, Figure 7B): ≥ 1 nM | glucose production (in words) [5]: enhanced glucose production | glucose production (in words) ([5]; listed as ACTH): induction of gluconeogenesis | glucose production (in words) ([5]; listed as cACTH1-39): significantly increased the level of glucose production | activation of chicken MC4R (chicken MC4R): activated by both α-MSH and ACTH | CREB phosphorylation [6]: significantly increased
